One may read the Papp A→B as the apparent permeability from the apical to the basolateral side of a cell layer. In general, Tmax refers to the time at which the peak concentration occurs. One may read the half-life as the time needed for the level to fall by half in the phase considered. A lower half-life goes with fast loss.

Active and inactive are the calls of the source.

One data set relates to SH-SY5Y. In words: Neuroprotective activity against H2O2-induced cell death in human SH-SY5Y cells at 1 uM incubated for 24 hrs by MTT assay. The format is functional. For orientation: Tetrazolium dyes change colour on reduction, which living cells bring about.
Data set [1] can be described thus: Apparent permeability from apical to basolateral side in dog MDCK2-MDR1 cells incubated for 120 mins by UV-visible spectrophotometry. Format: ADME, cell-based, Canis lupus familiaris. As to conditions: MDCK-MDR1.
The nature of data set [2]: Tmax in Sprague-Dawley rat plasma at 10 mg/kg, po measured upto 480 mins by LC/MS-MS analysis. Format: ADME, organism-based.
The nature of data set [3]: Half life in Sprague-Dawley rat plasma at 10 mg/kg, po measured upto 480 mins by LC/MS-MS analysis. Format: ADME, organism-based.
The nature of data set [4]: AUC (0 to infinity) in Sprague-Dawley rat brain at 10 mg/kg, po measured upto 480 mins by LC/MS-MS analysis. Format: ADME, organism-based. Conditions: in vivo, 8 h. Details: dose 10 mg/kg, time infinity, route oral.
Data set [5] has as its system Rattus norvegicus. Nature of the data set: Anxiolytic activity at Sprague-Dawley rat assessed as increase in time spent in open arm at 20 mg/kg, po by EPM test relative to control. Format: functional.
Data set [6] deals with Rattus norvegicus. In words: Anxiolytic activity at Sprague-Dawley rat assessed as increase in number of open arm entries at 10 to 20 mg/kg, po by EPM test. The format is functional, organism-based.
Data set [7] concerns Rattus norvegicus. Nature of the data set: Effect on locomotory activity in Sprague-Dawley rat assessed as distance travelled at 10 mg/kg, po by open field test. Format: functional, organism-based.
In data set [8] the test system is Rattus norvegicus. Nature of the data set: Antidepressant activity in Sprague-Dawley rat assessed as decrease in time of immobilization at 10 and 20 mg/kg, po by forced swim test. The format is functional, organism-based.
The subject of data set [9] is Rattus norvegicus. Nature of the data set: Anxiolytic activity at Sprague-Dawley rat assessed as decrease in time spent in closed arm at 5 to 20 mg/kg, po by EPM test. Format: functional, organism-based.
The species named for another data set is Homo sapiens. In words: Selectivity ratio of pKi for human cloned 5HT-1AR transfected in HeLa cells to pKi for human cloned adrenoceptor alpha 1D expressed in CHO cell membrane. Format: cell-based.

As to `COc1ccccc1OCCNCC1COC(c2ccccc2)(c2ccccc2)OC1.O=C(O)C(=O)O`, the results for the Activity in the data set with SH-SY5Y and in the data set on Rattus norvegicus [5] were 79% and 18%, respectively. Moreover, the Papp A→B at 2 h in [1] came to 26 ×10⁻⁶ cm/s. The Tmax in data set [2] is 0.5 h. Moreover, the half-life in [3] is 1.71 h. Also, the AUC in data set [4] is 7173.4 nmol·min/g. Besides, the result in the data set with Rattus norvegicus [6] was Active. For the same molecule, the outcome in the data set with Rattus norvegicus [7] was inactive. Moreover, the inhibition entry in the data set with Rattus norvegicus [8] and in the data set on Rattus norvegicus [9] was “Active” each time. In the data set filed under Homo sapiens, the Ratio pKi was 16.

Values taken from ChEMBL document CHEMBL4350985, “1,3-Dioxane as a scaffold for potent and selective 5-HT1AR agonist with in-vivo anxiolytic, anti-depressant and anti-nociceptive activity” (Eur J Med Chem, 2019).
